The nature of assay [1]: Inhibitory activity against aggrecanase was determined.
In the next assay the target is T1, Interstitial collagenase (Homo sapiens, UniProt P03956).
T1 sequence (P03956 whole entry): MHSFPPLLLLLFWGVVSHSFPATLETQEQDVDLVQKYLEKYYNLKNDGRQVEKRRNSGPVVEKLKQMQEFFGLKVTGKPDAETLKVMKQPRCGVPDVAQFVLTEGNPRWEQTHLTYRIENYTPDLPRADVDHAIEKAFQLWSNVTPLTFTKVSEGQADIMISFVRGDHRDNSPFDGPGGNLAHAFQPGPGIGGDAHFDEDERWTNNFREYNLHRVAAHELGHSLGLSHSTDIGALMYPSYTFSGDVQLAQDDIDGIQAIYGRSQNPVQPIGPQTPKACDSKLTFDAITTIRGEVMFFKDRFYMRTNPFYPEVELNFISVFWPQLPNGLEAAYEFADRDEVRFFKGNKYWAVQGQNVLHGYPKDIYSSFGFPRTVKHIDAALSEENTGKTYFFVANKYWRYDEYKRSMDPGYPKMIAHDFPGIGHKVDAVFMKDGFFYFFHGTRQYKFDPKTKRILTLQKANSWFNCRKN
Briefly: Binding affinity for interstitial collagenase (MMP-1).

For assay [2], the target named is 72 kDa type IV collagenase (Homo sapiens, UniProt P08253). Briefly: Binding affinity for human gelatinase A (MMP-2).
Chain of 72 kDa type IV collagenase (P08253 whole entry): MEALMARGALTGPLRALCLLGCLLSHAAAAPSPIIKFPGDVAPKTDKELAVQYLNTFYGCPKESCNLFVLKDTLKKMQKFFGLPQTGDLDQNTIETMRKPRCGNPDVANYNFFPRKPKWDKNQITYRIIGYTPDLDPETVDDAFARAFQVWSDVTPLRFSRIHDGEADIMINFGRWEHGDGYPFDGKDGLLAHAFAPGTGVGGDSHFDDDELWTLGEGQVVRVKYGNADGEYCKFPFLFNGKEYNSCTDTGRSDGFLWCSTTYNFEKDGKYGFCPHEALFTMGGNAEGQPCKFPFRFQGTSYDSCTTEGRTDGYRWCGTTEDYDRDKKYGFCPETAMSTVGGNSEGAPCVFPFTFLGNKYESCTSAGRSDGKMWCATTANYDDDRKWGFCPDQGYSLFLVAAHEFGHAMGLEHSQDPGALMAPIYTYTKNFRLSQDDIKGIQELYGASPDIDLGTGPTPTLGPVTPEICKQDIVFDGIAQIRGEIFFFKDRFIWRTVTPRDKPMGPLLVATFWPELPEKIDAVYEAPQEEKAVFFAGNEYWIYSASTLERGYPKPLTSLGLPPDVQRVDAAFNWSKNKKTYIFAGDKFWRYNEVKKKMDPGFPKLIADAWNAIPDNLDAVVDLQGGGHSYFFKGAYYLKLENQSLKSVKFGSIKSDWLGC
The target of assay [3] is Matrix metalloproteinase-9 (Homo sapiens, UniProt P14780). In words: Binding affinity for human gelatinase B (MMP-9).
Chain of Matrix metalloproteinase-9 (P14780 whole entry): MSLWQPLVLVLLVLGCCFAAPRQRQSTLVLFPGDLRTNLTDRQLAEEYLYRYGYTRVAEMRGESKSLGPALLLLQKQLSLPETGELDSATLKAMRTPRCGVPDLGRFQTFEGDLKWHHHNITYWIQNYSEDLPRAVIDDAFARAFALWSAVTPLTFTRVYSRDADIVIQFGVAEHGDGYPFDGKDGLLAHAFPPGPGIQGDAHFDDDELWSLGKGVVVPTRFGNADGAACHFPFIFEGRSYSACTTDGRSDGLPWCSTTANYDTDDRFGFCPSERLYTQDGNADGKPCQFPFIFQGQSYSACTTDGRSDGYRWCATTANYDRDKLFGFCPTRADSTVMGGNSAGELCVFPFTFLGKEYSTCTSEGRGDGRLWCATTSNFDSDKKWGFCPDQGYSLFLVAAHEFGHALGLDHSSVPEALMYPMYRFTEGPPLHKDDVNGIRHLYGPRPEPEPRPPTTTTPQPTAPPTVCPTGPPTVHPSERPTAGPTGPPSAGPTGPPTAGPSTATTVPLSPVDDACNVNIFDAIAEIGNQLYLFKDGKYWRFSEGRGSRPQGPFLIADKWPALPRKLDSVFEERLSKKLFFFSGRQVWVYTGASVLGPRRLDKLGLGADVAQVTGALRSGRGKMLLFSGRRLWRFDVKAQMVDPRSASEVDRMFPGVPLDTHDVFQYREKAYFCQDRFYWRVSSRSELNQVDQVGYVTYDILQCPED

IC50 and Ki data for 14 compounds are collected here from ChEMBL document CHEMBL1135085, “Potent P1' biphenylmethyl substituted aggrecanase inhibitors” (Bioorg Med Chem Lett, 2002).

For `O=C(C[C@@H](Cc1ccc(-c2cccc([N+](=O)[O-])c2)cc1)C(=O)N[C@H]1c2ccccc2C[C@H]1O)NO`, the IC50 in assay [1] was 5.5 nM.

`Cc1ccccc1-c1ccc(C[C@H](CC(=O)NO)C(=O)N[C@H]2c3ccccc3C[C@H]2O)cc1` registered a half-maximal inhibitory concentration (IC50) in assay [1] of 11.6 nM. For the same compound, the Ki at Interstitial collagenase is 4110 nM; in assay [2], under 2.8 nM; in assay [3], 4.2 nM.

Consider `CS(=O)(=O)Nc1cccc(-c2ccc(C[C@H](CC(=O)NO)C(=O)N[C@H]3c4ccccc4C[C@H]3O)cc2)c1`, for which the half-inhibitory concentration (IC50) in assay [1] is 1.5 nM.

`O=C(C[C@@H](Cc1cccc(O)c1)C(=O)N[C@H]1c2ccccc2C[C@H]1O)NO`: in assay [1], the half-inhibitory concentration (IC50) worked out at 64 nM.

In assay [1], `O=C(C[C@@H](Cc1ccc(-c2cccc(F)c2)cc1)C(=O)N[C@H]1c2ccccc2C[C@H]1O)NO` gave an IC50 of 2 nM. Against the preceding compound, the IC50 is about 32-fold lower.

For the compound `O=C(C[C@@H](Cc1ccc(-c2ccccc2-c2nn[nH]n2)cc1)C(=O)N[C@H]1c2ccccc2C[C@H]1O)NO`, the IC50 in assay [1] turned out to be 239 nM. The Ki is over 5000 nM on Interstitial collagenase, 1130 nM in assay [2] and 277 nM in assay [3].

In assay [1], `O=C(C[C@@H](Cc1ccc(-c2ccccc2CO)cc1)C(=O)N[C@H]1c2ccccc2C[C@H]1O)NO` yielded a concentration for half-maximal inhibition (IC50) of 144 nM. Also, the results for the Ki (on Interstitial collagenase; in assay [2]; in assay [3]) were over 5000 nM, 500 nM and over 2000 nM, respectively.

Turning to `COc1cccc(-c2ccc(C[C@H](CC(=O)NO)C(=O)N[C@H]3c4ccccc4C[C@H]3O)cc2)c1`, in assay [1], half-maximal inhibition (IC50) required 3.7 nM. Further, the inhibition constant (Ki) at Interstitial collagenase was over 5000 nM; in assay [2], under 2.8 nM; in assay [3] it was 2.8 nM.

With `O=C(C[C@@H](Cc1ccc(-c2ccccc2)cc1)C(=O)N[C@H]1c2ccccc2C[C@H]1O)NO`, inhibition in assay [1] was half-maximal at 9.8 nM (IC50). In addition, the figures for the inhibition constant Ki (at Interstitial collagenase; in assay [2]; in assay [3]) were over 5000 nM, under 1 nM and 5.4 nM, respectively.

The compound `O=C(C[C@@H](Cc1ccc(-c2ccc3c(c2)OCO3)cc1)C(=O)N[C@H]1c2ccccc2C[C@H]1O)NO` showed a concentration for half-maximal inhibition (IC50) in assay [1] of 1.5 nM. For the same compound, the Ki on Interstitial collagenase came out at 12800 nM; in assay [2] it was 43 nM; in assay [3] it was 309 nM.

The compound `O=C(C[C@@H](Cc1ccc(-c2ccccc2Cl)cc1)C(=O)N[C@H]1c2ccccc2C[C@H]1O)NO` returned an IC50 in assay [1] of 32 nM. In addition, the Ki was over 5000 nM at Interstitial collagenase, 27 nM in assay [2] and 150 nM in assay [3].

Consider `Cc1cccc(-c2ccc(C[C@H](CC(=O)NO)C(=O)N[C@H]3c4ccccc4C[C@H]3O)cc2)c1`, for which the IC50 in assay [1] was determined as 11.5 nM. Moreover, the inhibitory constant (Ki) was over 5000 nM on Interstitial collagenase, 39 nM in assay [2] and 1080 nM in assay [3].

As to `COc1ccccc1-c1ccc(C[C@H](CC(=O)NO)C(=O)N[C@H]2c3ccccc3C[C@H]2O)cc1`, inhibition in assay [1] was half-maximal at 3.4 nM (IC50).

Regarding `CC(C)c1cccc(-c2ccc(C[C@H](CC(=O)NO)C(=O)N[C@H]3c4ccccc4C[C@H]3O)cc2)c1`, in assay [1], the IC50 was found to be 216 nM.

For orientation: IC50 means the midpoint of a concentration-inhibition curve. The term Ki denotes the equilibrium dissociation constant of an inhibitor or competing ligand from its target. Higher therefore signals weaker binding.
